From patent publication US9023789B2, “Amylin analogs and pharmaceutical compositions thereof” (Novo Nordisk A/S, priority 2012, dated 2015)
≈ marks a conversion by molar mass, not a printed value. Where two headings read alike, the source gives them in different places. Numbered stars: 1 amine (or outer) side, 2 acyl side, 3 side chain; on linkers, the order of the positions; unused ones are H or OH. Bridge positions count the residues as written; N and C are the ends. Side chains are listed from the residue outwards. Peptide text beside a SMILES is read from it. * marks the point of attachment. C20 diacid = O=C(O)CCCCCCCCCCCCCCCCCCC(=O)*; γGlu = O=C(O)[C@H](CCC(=O)[*:2])N[*:1]; AEEA = NCCOCCOCC(=O)O

Legend:
rat calcitonin receptor = molecular target: T1, rat calcitonin receptor (Rattus norvegicus, UniProt P32214); assay: ASSAY (VIII) binding to the rat calcitonin receptor; conditions: Table 7, read-out: rCTR bind IC50
T1 construct: expressed in transfected cells; host or cells: BHK tk'ts 13 (transient, FuGENE 6), membranes
T1 sequence (P32214 25-479 isoform P32214-2 limits assumed): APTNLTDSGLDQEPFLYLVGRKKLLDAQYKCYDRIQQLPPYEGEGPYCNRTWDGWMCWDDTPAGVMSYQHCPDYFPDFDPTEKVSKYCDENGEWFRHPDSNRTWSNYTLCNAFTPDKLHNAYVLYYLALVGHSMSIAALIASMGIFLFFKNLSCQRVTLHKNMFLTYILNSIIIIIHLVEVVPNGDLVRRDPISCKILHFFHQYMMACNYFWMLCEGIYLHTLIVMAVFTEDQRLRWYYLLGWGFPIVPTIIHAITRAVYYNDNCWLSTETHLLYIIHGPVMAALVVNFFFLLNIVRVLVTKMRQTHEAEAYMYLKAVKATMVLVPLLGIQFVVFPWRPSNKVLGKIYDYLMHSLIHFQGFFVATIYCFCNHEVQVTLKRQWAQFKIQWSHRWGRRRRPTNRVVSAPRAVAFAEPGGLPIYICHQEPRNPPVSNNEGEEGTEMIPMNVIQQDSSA
Outline: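 Cell membranes for binding came from BHK tk′ts 13 cells harvested approximately 48 hours after transient transfection with the rat receptor.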

[1] = molecular target: T2, rat amylin receptor (rat calcitonin receptor + rat RAMP 3) (Rattus norvegicus, UniProt P32214+Q9JJ73); assay: ASSAY (VI) binding to the rat amylin receptor
T2 construct: expressed in transfected cells; host or cells: BHK tk'ts 13 (transient, FuGENE 6), membranes
T2 sequence (P32214 25-479 isoform P32214-2 limits assumed): T1 sequence (P32214 25-479 isoform P32214-2 limits assumed)
T2 sequence (Q9JJ73 23-147 partner): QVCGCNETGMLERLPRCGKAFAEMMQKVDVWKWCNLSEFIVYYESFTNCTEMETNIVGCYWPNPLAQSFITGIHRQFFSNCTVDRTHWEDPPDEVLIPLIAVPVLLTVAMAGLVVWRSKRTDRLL
Outline: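 The cell-membrane assay assessed binding at the rat amylin receptor. BHK tk′ts 13 cells were transfected transiently with rat calcitonin receptor, with FuGENE® 6 (Roche) as the transfection reagent, used per the manufacturer's recommendations. Approximately 48 hours after transfection the cells were harvested, and membranes were prepared for measuring binding.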

[2] = molecular target: T3, human amylin receptor (membranes from Amylin 3(a)/CRE-luc cells) (Homo sapiens, UniProt O60896+P30988); assay: ASSAY (V) binding to the human amylin receptor (SPA, 125I-rat amylin);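 note: competition binding of cell membranes (35 ng/µL) mixed with SPA beads in 384-well plates at 40 µL total volume, read by scintillation counting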
T3 construct: expressed in transfected cells
T3 sequence (P30988 25-474): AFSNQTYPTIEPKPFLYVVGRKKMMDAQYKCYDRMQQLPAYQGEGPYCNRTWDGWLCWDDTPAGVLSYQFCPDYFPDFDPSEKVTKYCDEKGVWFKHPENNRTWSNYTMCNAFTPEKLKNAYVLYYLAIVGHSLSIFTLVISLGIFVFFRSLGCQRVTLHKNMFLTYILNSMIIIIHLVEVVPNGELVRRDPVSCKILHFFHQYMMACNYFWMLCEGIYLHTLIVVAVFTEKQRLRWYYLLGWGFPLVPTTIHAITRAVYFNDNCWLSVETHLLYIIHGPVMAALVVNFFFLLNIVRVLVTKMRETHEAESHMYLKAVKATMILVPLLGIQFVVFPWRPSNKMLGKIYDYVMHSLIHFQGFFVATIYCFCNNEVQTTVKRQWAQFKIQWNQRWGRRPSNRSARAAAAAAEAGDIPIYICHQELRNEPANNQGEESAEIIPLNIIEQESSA
T3 sequence (O60896 24-148 partner): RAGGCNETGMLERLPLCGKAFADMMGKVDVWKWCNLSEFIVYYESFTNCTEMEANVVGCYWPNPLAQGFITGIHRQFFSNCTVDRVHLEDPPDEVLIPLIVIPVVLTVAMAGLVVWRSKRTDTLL

[3] = ASSAY (IV) determination of solubility; type: physicochemical
Outline: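 Samples of polypeptide, prepared from a water stock at […] and diluted 1:1 into 100 mM buffers spanning pH 3.0 to 8.0, stood 18 hours at room temperature. Polypeptide concentration was then determined by UPLC following centrifugation.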

[4] = molecular target: T4, human amylin 3(a) receptor (human calcitonin receptor + RAMP-3) in BHK570 cells (Homo sapiens, UniProt O60896+P30988); assay: ASSAY (II)a functional assay, human amylin receptor (CRE luciferase); type: cell-based
T4 construct: expressed in transfected cells
Outline: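 Read-out: CRE-driven luciferase luminescence, single photon counting, after 30 min at room temperature with LucLite. BHK cells expressed calcitonin receptor alone or with RAMP-3 (amylin 3(a)). Cells were stimulated 3 h at 37° C in DMEM, 10% FBS, 10 mM Hepes, pH 7.4.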

[5] = Table 7, rat binding selectivity, rCTR IC50 / rAmylin-R IC50
[6] = Table 7a (preferred compounds), rat binding selectivity, rCTR IC50 / rAmylin-R IC50
[7] = ratio of rCTR bind IC50 to rAmylin-R bind IC50
[8] = Table 5, selectivity, hCTR bind IC50 / hAmylin-R bind IC50
[9] = Table 5a, selectivity, hCTR bind IC50 / hAmylin-R bind IC50
[10] = Table 5b, selectivity, hCTR bind IC50 / hAmylin-R bind IC50
[11] = Table 5c, selectivity, hCTR bind IC50 / hAmylin-R bind IC50
[12] = Table 7, human binding selectivity, included for comparison
[13] = Table 7a (preferred compounds), human binding selectivity, included for comparison
[14] = ratio of human calcitonin receptor binding IC50 to human amylin receptor binding IC50
[15] = hCTR funct. EC50 divided by hAmylin-R funct. EC50
[16] = hCTR funct. EC50 over hAmylin-R funct. EC50
[17] = human functional selectivity: hCTR funct. EC50 / hAmylin-R funct. EC50

SMILES | IC50 (rat calcitonin receptor) | Ratio rCT/rAmylin binding [1, 5] | Ratio rCT/rAmylin binding [1, 6] | Ratio rCT/rAmylin binding [1, 7] | Ratio hCT/hAmylin binding [2, 8] | Ratio hCT/hAmylin binding [2, 9] | Ratio hCT/hAmylin binding [2, 10] | Ratio hCT/hAmylin binding [2, 11] | Ratio hCT/hAmylin binding [2, 12] | Ratio hCT/hAmylin binding [2, 13] | Ratio hCT/hAmylin binding [2, 14] | Ratio hCT/hAmylin funct. [4, 15] | Ratio hCT/hAmylin funct. [4, 16] | Ratio hCT/hAmylin funct. [4, 17] | further results
CC[C@H](C)[C@H](NC(=O)[C@H](C)NC(=O)CNC(=O)[C@H](Cc1ccccc1)NC(=O)[C@H](CC(N)=O)NC(=O)[C@@H]1CCCN1C(=O)[C@H](CO)NC(=O)[C@H](CO)NC(=O)[C@H](Cc1c[nH]cn1)NC(=O)[C@H](CCCNC(=N)N)NC(=O)[C@H](CC(C)C)NC(=O)[C@H](Cc1ccccc1)NC(=O)[C@H](CC(N)=O)NC(=O)[C@H](C)NC(=O)[C@H](CC(C)C)NC(=O)[C@H](CCCNC(=N)N)NC(=O)[C@H](CCC(N)=O)NC(=O)[C@@H](NC(=O)[C@H](C)NC(=O)[C@@H]1CSSC[C@H](NC(=O)[C@@H](N)CCCCNC(=O)COCCOCCNC(=O)CC[C@H](NC(=O)CCCCCCCCCCCCCCCCCCC(=O)O)C(=O)O)C(=O)N[C@@H](CC(N)=O)C(=O)N[C@@H]([C@@H](C)O)C(=O)N[C@@H](C)C(=O)N[C@@H]([C@@H](C)O)C(=O)N1)[C@@H](C)O)C(=O)N1CCC[C@H]1C(=O)N[C@@H](CO)C(=O)N[C@@H](CO)C(=O)N[C@H](C(=O)N1CCC[C@H]1C(=O)N[C@H](C(=O)NCC(=O)N[C@@H](CO)C(=O)N[C@@H](Cc1c[nH]cn1)C(=O)N[C@H](C(=O)N[C@@H](Cc1ccc(O)cc1)C(N)=O)[C@@H](C)O)C(C)C)[C@@H](C)O [Example 57] (H-K([AEEA-γGlu-C20 diacid])CNTATCATQRLANFLRHSSPNFGAIPSSTPVGSHTY-NH2; disulfide 2-7; N-terminus assumed) | 24.4 nM | 134.8 | 134.8 | 134.8 | 133.0 | 133.0 | 133.0 | 133.0 | 133.0 | 133.0 | 133.0 | 35.0 | 35.0 | 35.0 | IC50 ([1]; Table 7, binding to rat amylin receptor, read-out: rAmylin-R bind IC50): 0.181 nM; IC50 ([2]; Table 4, read-out: hAmylin-R bind IC50): 0.115 nM; solubility at 18 h ([3]; bistrispropane buffer, pH 6.5, read-out: Solubility pH 6.5 Concentration): ≥ 200 µM; solubility at 18 h ([3]; bistrispropane buffer, pH 7.5, read-out: Solubility pH 7.5 Concentration): 142 µM (≈ 644 µg/mL); solubility at 18 h ([3]; bistrispropane buffer, pH 6.0, read-out: Solubility pH 6.0 Concentration): ≥ 200 µM; solubility at 18 h ([3]; bistrispropane buffer, pH 7.0, read-out: Solubility pH 7.0 Concentration): ≥ 200 µM; solubility at 18 h ([3]; bistrispropane buffer, pH 8.0, read-out: Solubility pH 8.0 Concentration): 101 µM (≈ 458 µg/mL); solubility at 18 h ([3]; glycylglycine buffer, pH 3.0, read-out: Solubility pH 3.0 Concentration): ≥ 200 µM; solubility at 18 h ([3]; glycylglycine buffer, pH 4.0, read-out: Solubility pH 4.0 Concentration): ≥ 200 µM; solubility at 18 h ([3]; glycylglycine buffer, pH 5.0, read-out: Solubility pH 5.0 Concentration): ≥ 200 µM; EC50 ([4]; human amylin receptor functional potency, assay (II), read-out: hAmylin-R funct. EC50): 0.089 nM
CC[C@H](C)[C@H](NC(=O)[C@H](C)NC(=O)CNC(=O)[C@H](Cc1ccccc1)NC(=O)[C@H](CC(N)=O)NC(=O)[C@@H]1CCCN1C(=O)[C@H](CO)NC(=O)[C@H](CO)NC(=O)[C@H](Cc1c[nH]cn1)NC(=O)[C@H](CCCNC(=N)N)NC(=O)[C@H](CC(C)C)NC(=O)[C@H](Cc1ccccc1)NC(=O)[C@H](CCCCN)NC(=O)[C@H](C)NC(=O)[C@H](CC(C)C)NC(=O)[C@H](CCCNC(=N)N)NC(=O)[C@H](CCC(N)=O)NC(=O)[C@@H](NC(=O)[C@H](C)NC(=O)[C@@H]1CSSC[C@H](NC(=O)[C@@H](N)CCCCNC(=O)COCCOCCNC(=O)CC[C@H](NC(=O)CCCCCCCCCCCCCCCCCCC(=O)O)C(=O)O)C(=O)N[C@@H](CC(N)=O)C(=O)N[C@@H]([C@@H](C)O)C(=O)N[C@@H](C)C(=O)N[C@@H]([C@@H](C)O)C(=O)N1)[C@@H](C)O)C(=O)N1CCC[C@H]1C(=O)N[C@@H](CO)C(=O)N[C@@H](CO)C(=O)N[C@H](C(=O)N1CCC[C@H]1C(=O)N[C@H](C(=O)NCC(=O)N[C@@H](CO)C(=O)N[C@@H](CC(N)=O)C(=O)N[C@H](C(=O)N[C@@H](Cc1ccc(O)cc1)C(N)=O)[C@@H](C)O)C(C)C)[C@@H](C)O [Example 74] (H-K([AEEA-γGlu-C20 diacid])CNTATCATQRLAKFLRHSSPNFGAIPSSTPVGSNTY-NH2; disulfide 2-7; N-terminus assumed) | 109 nM | 22.3 | 22.3 | 22.3 | 101.0 | 101.0 | 101.0 | 101.0 | 101.0 | 101.0 | 101.0 | 56.3 | 56.3 | 56.3 | IC50 [1]: 4.89 nM; IC50 [2]: 0.791 nM; solubility at 18 h ([3]; pH 3.0, read-out: Solubility pH 3.0 Concentration): ≥ 200 µM; solubility at 18 h ([3]; pH 4.0, read-out: Solubility pH 4.0 Concentration): ≥ 200 µM; solubility at 18 h ([3]; pH 5.0, read-out: Solubility pH 5.0 Concentration): ≥ 200 µM; solubility at 18 h ([3]; pH 6.0, read-out: Solubility pH 6.0 Concentration): ≥ 200 µM; solubility at 18 h ([3]; pH 6.5, read-out: Solubility pH 6.5 Concentration): ≥ 200 µM; solubility at 18 h ([3]; pH 7.0, read-out: Solubility pH 7.0 Concentration): ≥ 200 µM; solubility at 18 h ([3]; pH 7.5, read-out: Solubility pH 7.5 Concentration): ≥ 200 µM; solubility at 18 h ([3]; pH 8.0, read-out: Solubility pH 8.0 Concentration): ≥ 200 µM; EC50 [4]: 0.666 nM
